pEC50: −log10 of the molar value. Read-outs that look alike come from different tables or passages of the source.
How the values were obtained:
coronary artery = test: Blood flow increase of coronary artery in anesthetized dogs, i.v.; format: in vivo, dog (mongrel); settings: Canis lupus familiaris, iv; for change in vivo at 0.3 mg/kg: read-out: Increase in coronary artery blood flow
Experimental: (§1) 2. Blood Flow Increase of Coronary, Vertebral and Femoral Arteries
(§2) A plethysmographic probe (manufactured and sold by NIHON KODEN CO., LTD., Japan) was mounted on the coronary, vertebral and femoral arteries, and blood flow was measured by means of an electromagnetic blood flowmeter (type:MF-27, manufactured and sold by NIHON KODEN CO., LTD., Japan). Under these conditions, the compounds of the present invention were intravenously administered through a polyethylene tube inserted to a femoral veinlet, and the change in blood flow was measured for 30 minutes by means of the electromagnetic blood flowmeter.
(§3) The effects (dilation of the arteries) of the compounds of the present invention on blood flow in coronary, vertebral and femoral arteries were examined according to the method as mentioned hereinbefore.

femoral artery = test: Blood flow increase of femoral artery in anesthetized dogs, i.v.; format: in vivo, dog (mongrel); settings: Canis lupus familiaris, iv; for change in vivo at 0.3 mg/kg: read-out: Increase in femoral artery blood flow
Experimental: as §1, §2, §3

vertebral artery = test: Blood flow increase of vertebral artery in anesthetized dogs, i.v.; format: in vivo, dog (mongrel); settings: Canis lupus familiaris, iv; for change in vivo at 0.3 mg/kg: read-out: Increase in vertebral artery blood flow
Experimental: as §1, §2, §3

mesenteric artery = test: Relaxation of mesenteric artery (KCl-contracted); settings: Oryctolagus cuniculus; rabbit mesenteric artery contracted with 15 to 20 mM KCl; read-out: ED50 (concentration attaining 50% of complete relaxation)
Experimental: 1. Relaxation of Mesenteric Artery
A rabbit of Japanese local variety weighing about 3 kg was bled to death. Then, the abdomen of the rabbit was dissected to locate a mesenteric artery. […] Thus, shrinking and relaxation of the artery could be measured as a load on the transducer. To the organ bath, KCl was added so that the KCl concentration became 15 to 20 mM, causing the artery to shrink. Then, the compounds of the present invention were added to the organ bath to observe relaxation of the artery.
The effect of the compounds of the present invention on relaxation of mesenteric artery was examined according to the method as mentioned hereinbefore.

bronchial tubes = test: Inhibition of histamine contraction of bronchial tubes (relaxation of bronchial tubes); settings: Cavia porcellus; guinea pig bronchial tube, 10 μM histamine; Table 16; read-out: ED50 (50% decrease of histamine contraction of bronchial tubes)
Experimental: 3. Inhibition of Histamine Contraction of Bronchial Tubes (Relaxation of Bronchial Tubes)
That is, a bronchial tube sample taken from a guinea pig was suspended in the 20-ml bath filled with Krebs-Henseleit nutrient solution and maintained at a temperature of 37° C. To the bath was added histamine so that the histamine concentration became 10 μM, causing the bronchial tube sample to contract. After the contraction became stable, the compounds of the present invention were added cumulatively to the bath to observe relaxation of the bronchial tube sample.
The effect of the compounds of the present invention on relaxation of bronchial tubes was examined according to the method as mentioned hereinbefore.

Row | pEC50 (mesenteric artery) | pEC50 (bronchial tubes) | Compound | further results
1 | 5.40 | 5.00 | CCCCCCNC1CCCN(S(=O)(=O)c2cccc3cnccc23)C1 (stereo not shown) [Compound (71), 1-(5-isoquinolinesulfonyl)-3-hexylaminopiperidine] | change in vivo at 1 mg/kg (coronary artery; dog): 102%; change in vivo at 1 mg/kg (femoral artery; dog): 35%; change in vivo at 1 mg/kg (vertebral artery; dog): 85%
2 | – | – | O=S(=O)(c1cccc2c(O)nccc12)N1CCCNCC1 [Comparative Compound No. 2, 1(1-Hydroxy-5-isoquinolinesulfonyl)-homopiperazine, reference compound] | change in vivo at 0.3 mg/kg (coronary artery): 27%; change in vivo at 0.3 mg/kg (femoral artery): 30%; change in vivo at 0.3 mg/kg (vertebral artery): 48%
3 | – | – | O=S(=O)(c1cccc2cnccc12)N1CCNCC1 [Comparative Compound No. 3, 1(5-Isoquinolinesulfonyl)piperazine, reference compound] | change in vivo at 1 mg/kg (coronary artery; dog): 70%; change in vivo at 1 mg/kg (femoral artery; dog): 69%; change in vivo at 1 mg/kg (vertebral artery; dog): 98%
4 | 4.64 | 4.60 | CCCCCCN(CCN1CCOCC1)S(=O)(=O)c1cccc2cnccc12 [Compound (46), N-hexyl-N-(2-morpholinoethyl)-5-isoquinolinesulfonamide] | –
5 | 4.89 | 4.89 | CCCCN(C(C)C(C)N)S(=O)(=O)c1cccc2cnccc12 (stereo not shown) [Compound (16), N-(2-amino-1-methylpropyl)-N-butyl-5-isoquinolinesulfonamide] | –
6 | 4.82 | 4.82 | O=S(=O)(c1cccc2cnccc12)N1CCC(NCCc2ccccc2)CC1 [Compound (61), 1-(5-isoquinolinesulfonyl)-4-phenethylaminopiperidine] | –
7 | 4.70 | 4.80 | CC1CCN(S(=O)(=O)c2cccc3cnccc23)CC1N (stereo not shown) [Compound (75), 1-(5-isoquinolinesulfonyl)-3-amino-4-methylpiperidine] | –
8 | 4.82 | 4.80 | CCCN(CCCCCCN)S(=O)(=O)c1cccc2cnccc12 [Compound (10), N-(6-aminohexyl)-N-propyl-5-isoquinolinesulfonamide] | –
9 | 4.77 | 4.85 | NC1CCN(S(=O)(=O)c2cccc3c(Cl)nccc23)C1 (stereo not shown) [Compound (101), 1-(1-chloro-5-isoquinolinesulfonyl)-3-aminopyrrolidine] | –
10 | 5.22 | 5.22 | CNC1CCCN(S(=O)(=O)c2cccc3cnccc23)C1 (stereo not shown) [Compound (64), 1-(5-isoquinolinesulfonyl)-3-methylaminopiperidine] | –
11 | 5.70 | 5.22 | CCCCCCCCN(CCN)S(=O)(=O)c1cccc2cnccc12 [Compound (5), N-(2-aminoethyl)-N-octyl-5-isoquinolinesulfonamide] | –
12 | 4.66 | 4.64 | O=S(=O)(c1cccc2cnccc12)N1CCC(N2CCCCC2)CC1 [Compound (62), 1-(5-isoquinolinesulfonyl)-4-piperidinopiperidine] | –
13 | 5.00 | 4.66 | CCCCCCCCC(N)CN(CCC)S(=O)(=O)c1cccc2cnccc12 (stereo not shown) [Compound (14), N-(2-aminodecyl)-N-propyl-5-isoquinolinesulfonamide] | –
14 | 4.92 | 4.92 | O=S(=O)(c1cccc2cnccc12)N(CCNCc1ccccc1)Cc1ccccc1 [Compound (30), N-(2-benzylaminoethyl)-N-benzyl-5-isoquinolinesulfonamide] | –
15 | 4.85 | 4.92 | CNC1CCN(S(=O)(=O)c2cccc3cnccc23)CC1 [Compound (52), 1-(5-isoquinolinesulfonyl)-4-methylaminopiperidine] | –
16 | 4.62 | 4.68 | O=S(=O)(c1cccc2cnccc12)N1CCCC(N2CCCCC2)C1 (stereo not shown) [Compound (72), 1-(5-isoquinolinesulfonyl)-3-piperidinopiperidine] | –
17 | 4.85 | 4.66 | CCCN(C(C)CCCNCc1ccccc1)S(=O)(=O)c1cccc2cnccc12 (stereo not shown) [Compound (40), N-(4-benzylamino-1-methylbutyl)-N-propyl-5-isoquinolinesulfonamide] | –
18 | – | – | O=S(=O)(c1cccc2cnccc12)N1CCCNCC1 [Comparative Compound No. 1, 1(5-Isoquinolinesulfonyl)homopiperazine, reference compound] | change in vivo at 0.3 mg/kg (coronary artery; dog, i.v., 0.3 mg/kg): 89%; change in vivo at 0.3 mg/kg (femoral artery; dog, i.v., 0.3 mg/kg): 48%; change in vivo at 0.3 mg/kg (vertebral artery; dog, i.v., 0.3 mg/kg): 160%

Row | pEC50 (mesenteric artery) | pEC50 (bronchial tubes) | Compound | further results
19 | 4.66 | 4.72 | CCN(CCN(C)C1CCCCC1)S(=O)(=O)c1cccc2cnccc12 [Compound (47), N-[2-(N-cyclohexyl-N-methylamino)ethyl]-N-ethyl-5-isoquinolinesulfonamide] | –
20 | 4.70 | 4.68 | CCCCCN(CCCCCCNCc1ccccc1)S(=O)(=O)c1cccc2cnccc12 [Compound (34), N-(6-benzylaminohexyl)-N-pentyl-5-isoquinolinesulfonamide] | –
21 | 4.82 | 5.00 | CCNC1CCCN(S(=O)(=O)c2cccc3c(Cl)nccc23)C1 (stereo not shown) [Compound (97), 1-(1-chloro-5-isoquinolinesulfonyl)-3-ethylaminopiperidine] | –
22 | 4.85 | 5.00 | CC(C)NC1CCCN(S(=O)(=O)c2cccc3cnccc23)C1 (stereo not shown) [Compound (67), 1-(5-isoquinolinesulfonyl)-3-isopropylaminopiperidine] | –
23 | 5.22 | 4.57 | CCCCCCNC(C)CN(CCCCCC)S(=O)(=O)c1cccc2cnccc12 (stereo not shown) [Compound (37), N-(2-hexylaminopropyl)-N-hexyl-5-isoquinolinesulfonamide] | –
24 | 4.72 | 4.89 | O=S(=O)(c1cccc2cnccc12)N1CCC(NCc2ccccc2)CC1 [Compound (60), 1-(5-isoquinolinesulfonyl)-4-benzylaminopiperidine] | –
25 | 4.85 | 4.74 | O=S(=O)(c1cccc2c(Cl)nccc12)N1CCC(NCc2ccccc2)CC1 [Compound (95), 1-(1-chloro-5-isoquinolinesulfonyl)-4-benzylaminopiperidine] | –
26 | 5.00 | 5.00 | CNCCN(C)S(=O)(=O)c1cccc2cnccc12 [Compound (25), N-(2-methylaminoethyl)-N-methyl-5-isoquinolinesulfonamide] | –
27 | 5.10 | 4.77 | CCCCCCN(CCNCc1ccccc1)S(=O)(=O)c1cccc2cnccc12 [Compound (32), N-(2-benzylamioethyl)-N-hexyl-5-isoquinolinesulfonamide] | –
28 | 4.64 | 4.77 | CN(C)C1CCCN(S(=O)(=O)c2cccc3c(O)nccc23)C1 (stereo not shown) [Compound (90), 1-(1-hydroxy-5-isoquinolinesulfonyl)-3-dimethylaminopiperidine] | –
29 | 5.10 | 4.85 | O=S(=O)(c1cccc2cnccc12)N1CCCC(NCc2ccccc2)C1 (stereo not shown) [Compound (69), 1-(5-isoquinolinesulfonyl)-3-benzylaminopiperidine] | –
30 | 4.89 | 4.96 | CCCNC1CCCN(S(=O)(=O)c2cccc3c(O)nccc23)C1 (stereo not shown) [Compound (85), 1-(1-hydroxy-5-isoquinolinesulfonyl)-3-propylaminopiperidine] | –
31 | 4.80 | 4.49 | CC1CC(N)CN1S(=O)(=O)c1cccc2cnccc12 (stereo not shown) [Compound (77), 1-(5-isoquinolinesulfonyl)-3-amino-5-methylpyrrolidine] | –
32 | 5.70 | 4.89 | CCCCCCN(CCCN)S(=O)(=O)c1cccc2cnccc12 [Compound (7), N-(3-aminopropyl)-N-hexyl-5-isoquinolinesulfonamide] | –
33 | 4.77 | 4.66 | CCCNCC(C)CCCCN(C)S(=O)(=O)c1cccc2cnccc12 (stereo not shown) [Compound (41), N-methyl-N-(6-propylamino-5-methylhexyl)-5-isoquinolinesulfonamide] | –
34 | 4.82 | 4.89 | NC1CCN(S(=O)(=O)c2cccc3c(O)nccc23)CC1 [Compound (79), 1-(1-hydroxy-5-isoquinolinesulfonyl)-4-aminopiperidine] | –
35 | 5.15 | 4.52 | CCCCCCN(CC(C)NCC)S(=O)(=O)c1cccc2cnccc12 (stereo not shown) [Compound (36), N-(2-ethylaminopropyl)-N-hexyl-5-isoquinolinesulfonamide] | –
